One experiment relates to T1, Bt-Chitinase.
T1 construct: EC 3.2.1.14
The experiment in a line: fluorometric chitinase assay. Type of experiment: biochemical, Bacillus thuringiensis serovar kurstaki. The note with it: 50 mM sodium phosphate pH 7.0, 30 °C, 20 min; without Bt-CBP21; footnote gives substrate as 50 µM. The text has this: fluorometric chitinase assay on Bt-Chitinase

For the next experiment, the system named is Ha-Chitinase. The experiment in a line: fluorometric chitinase assay. It counts as biochemical, Helicoverpa armigera. Particulars: 50 mM sodium phosphate pH 7.0, 30 °C, 20 min; without Bt-CBP21; footnote gives substrate as 50 µM. The text has this:
fluorometric chitinase assay on Ha-Chitinase

What is called Km is the concentration of substrate that gives half-maximal velocity.

In the case of `CC(=O)N[C@H]1[C@H](Oc2ccc3c(C)cc(=O)oc3c2)O[C@H](CO)[C@@H](O[C@@H]2O[C@H](CO)[C@@H](O)[C@H](O)[C@H]2NC(C)=O)[C@@H]1O` [4-MU-(GlcNAc)2], the Km was found to be 30 µM in the experiment on Bt-Chitinase and 1.4 µM with Ha-Chitinase.

The values above are taken from paper PMC3688941, “Characterization of a Chitin-Binding Protein from Bacillus thuringiensis HD-1” (PLoS ONE, 2013).
